Measurements published in US20230217925A1, “FENCLORIM SEED TREATMENT AS A BIOSTIMULANT” (THE BOARD TRUSTEES OF THE UNIVERSITY OF ARKANSAS, priority 2022, published 2023).

Assays:
Type in all cases: in vivo
[1] = test system: rice cultivar Diamond; assay: Fenclorim dose-response study, seed treatment (groundcover, shoot numbers); details: for Shoots (%), percentage of shoot numbers produced by control plants: 30 days after emergence; for Groundcover (%): 45 days after emergence
Experimental: (§1) On Apr. 17, 2021, an experiment was initiated to identify the best rate at which to apply fenclorim as a rice seed treatment. The experiment was conducted using four rice cultivars (Diamond, Titan, RT7521FP, and RT7321FP) and 5 rates of the fenclorim (0, 0.625, 1.25, 2.5, and 5 g/kg seed). Seeds were treated using the aforementioned methods with all seeds having the same base seed treatment. […] At 2.5 g fenclorim per kg of seed, there was a 22% increase (averaged across cultivars) in groundcover compared to the no fenclorim treatment at 45 days after emergence. In this study, rice plant heights and shoot numbers were measured 30 days after emergence. The heights of five random plants were measured per plot and shoot numbers were measured in two 0.5 m sections of row.

[2] = test system: rice cultivar RT7521FP; assay: as above; details: for Shoots (%), percentage of shoot numbers produced by control plants: 30 days after emergence; for Groundcover (%): 45 days after emergence
Experimental: as §1

[3] = test system: rice cultivar Titan; assay: as above; details: for Shoots (%), percentage of shoot numbers produced by control plants: 30 days after emergence; for Groundcover (%): 45 days after emergence
Experimental: as §1

[4] = test system: rice cultivar RT7321FP; assay: as above; details: for Shoots (%), percentage of shoot numbers produced by control plants: 30 days after emergence; for Groundcover (%): 45 days after emergence
Experimental: as §1

[5] = test system: four rice cultivars (Diamond, Titan, RT7521FP, and RT7321FP); assay: Fenclorim dose-response study, results over all four cultivars; details: for Increase over control % (groundcover): averaged over all four cultivars, 45 days after emergence
Experimental: as §1

[6] = test system: Diamond rice; assay: Diamond rice evaluation in heavy clay soil, drone image groundcover; details: 2.5 g fenclorim per kg of seed vs 0, 45 days after emergence
Experimental: (§2) An experiment was conducted to screen for the effects of a fenclorim seed treatment across sixteen of the most common rice cultivars planted in the state of Arkansas. The cultivars screened in the study included ten long-grain inbreds, three medium-grain inbreds, and three long-grain hybrids: ‘Diamond’, ‘Jewel’, ‘DG363L’, ‘CLL 15’, ‘CLL 16’, ‘CLL 17’, ‘PVL02’, ‘PVL03’, ‘RTV7231MA’, ‘CLJ 01’, ‘Jupiter’, ‘Titan’, ‘Lynx’, ‘RT753XP’, ‘RT7321FP’, and ‘RT7521FP’. All seeds were treated with a base treatment comprising a standard rice insecticide (i.e., NipsIt®) and fungicide (i.e., a combination of metalaxyl, fludioxonil, carboxin, and thiram) using a commercial seed treater. Additionally, each seed was treated with 0 or 2.5 g fenclorim per kg of seed. Seed was planted on Apr. 19, 2021, utilizing nine-row plots (5.2 m by 3 m). Aerial images were captured using a DJI Mavic Air 2 45 days after emergence, and images were analyzed using Turf Analyzer.
An experiment was conducted to test whether fenclorim seed treatment would influence rice growth in a heavy clay soil. Diamond rice was planted on Apr. 22, 2021, using the same practices as the previous experiment, including a treatment with 0 or 2.5 g fenclorim per kg of seed.

[7] = test system: sixteen of the most common rice cultivars planted in the state of Arkansas; assay: Cultivar screening, fenclorim seed treatment, field plots, aerial image groundcover; details: 2.5 g fenclorim per kg of seed vs 0; 45 days after emergence; averaged across all cultivars
Experimental: as §2

[8] = test system: rice seeds of the cultivar Diamond; assay: Greenhouse biostimulant experiment; details: 2.5 g/kg of seed vs 0, 30 days after emergence, silt loam soil
Experimental: A greenhouse biostimulant experiment was performed in 2 experimental runs. Fenclorim was applied to rice seed at 0 or 2.5 g/kg of seed. Five rice seeds of the cultivar Diamond were planted in silt loam soil in 4″ diameter pots 0.5″ apart. At least 9 replications were performed per run. At 14 days after emergence, emerged rice was counted and thinned to 3 plants per pot. Data were collected 30 days after emergence. The leaf area of the rice plants in each pot was determined. Groundcover was determined based on the number of green leaf pixels from an overhead image. Shoot (aboveground) and root (belowground) biomass were determined, and total biomass was determined by adding the mass of the roots and shoots.

Clc1cc(Cl)nc(-c2ccccc2)n1 [fenclorim, 4,6-dichloro-2-phenylpyrimidine]
Shoots (%), percentage of shoot numbers produced by control plants ([1]; 0.625 g/kg seed): 98.6%
Groundcover (%) ([1]; 0.625 g/kg seed): 47.3%
Shoots (%), percentage of shoot numbers produced by control plants ([1]; 1.25 g/kg seed): 111.1%
Groundcover (%) ([1]; 1.25 g/kg seed): 54.6%
Shoots (%), percentage of shoot numbers produced by control plants ([1]; 2.5 g/kg seed): 106.9%
Groundcover (%) ([1]; 2.5 g/kg seed): 54.2%
Shoots (%), percentage of shoot numbers produced by control plants ([1]; 5.0 g/kg seed): 100%
Groundcover (%) ([1]; 5.0 g/kg seed): 52.2%
Shoots (%), percentage of shoot numbers produced by control plants ([2]; 0.625 g/kg seed): 110.7%
Groundcover (%) ([2]; 0.625 g/kg seed): 51.8%
Shoots (%), percentage of shoot numbers produced by control plants ([2]; 1.25 g/kg seed): 112.4%
Groundcover (%) ([2]; 1.25 g/kg seed): 52.5%
Shoots (%), percentage of shoot numbers produced by control plants ([2]; 2.5 g/kg seed): 108.8%
Groundcover (%) ([2]; 2.5 g/kg seed): 51.2%
Shoots (%), percentage of shoot numbers produced by control plants ([2]; 5.0 g/kg seed): 111.9%
Groundcover (%) ([2]; 5.0 g/kg seed): 55.9%
Shoots (%), percentage of shoot numbers produced by control plants ([3]; 0.625 g/kg seed): 111.1%
Groundcover (%) ([3]; 0.625 g/kg seed): 49.3%
Shoots (%), percentage of shoot numbers produced by control plants ([3]; 1.25 g/kg seed): 110.5%
Groundcover (%) ([3]; 1.25 g/kg seed): 47.3%
Shoots (%), percentage of shoot numbers produced by control plants ([3]; 2.5 g/kg seed): 105.3%
Groundcover (%) ([3]; 2.5 g/kg seed): 48.1%
Shoots (%), percentage of shoot numbers produced by control plants ([3]; 5.0 g/kg seed): 102.4%
Groundcover (%) ([3]; 5.0 g/kg seed): 50.6%
Shoots (%), percentage of shoot numbers produced by control plants ([4]; 0.625 g/kg seed): 115.2%
Groundcover (%) ([4]; 0.625 g/kg seed): 41.2%
Shoots (%), percentage of shoot numbers produced by control plants ([4]; 1.25 g/kg seed): 110.3%
Groundcover (%) ([4]; 1.25 g/kg seed): 46.0%
Shoots (%), percentage of shoot numbers produced by control plants ([4]; 2.5 g/kg seed): 108.4%
Groundcover (%) ([4]; 2.5 g/kg seed): 53.9%
Shoots (%), percentage of shoot numbers produced by control plants ([4]; 5.0 g/kg seed): 112.3%
Groundcover (%) ([4]; 5.0 g/kg seed): 50.3%
rice plant heights ([5]; 0.625-5 g/kg seed vs 0, 30 days after emergence, five random plants per plot): not influenced
shoot number, effect as the seed treatment rate increased ([5]; 0.625-5 g/kg seed vs 0, 30 days after emergence, two 0.5 m sections of row): an increase in shoot number was observed
Increase over control % (groundcover) ([5]; 0.625 g/kg seed): 12%
Increase over control % (groundcover) ([5]; 1.25 g/kg seed): 18%
Increase over control % (groundcover) ([5]; 2.5 g/kg seed): 22%
Increase over control % (groundcover) ([5]; 5.0 g/kg seed): 23%
increase in groundcover [6]: 4%
increase in groundcover [7]: 7%
increase in aboveground biomass [8]: 14%
increase in belowground biomass [8]: 63%
increase in groundcover [8]: 15%
increase in leaf area [8]: 23%
increase in total biomass [8]: 40%
